Results taken from patent publication US6630124B1, “Combination therapy with VIP antagonist” (Ramot-University Authority for Applied Research and …, priority 1998, dated 2003).
In brackets after ≈: the same amount, converted by molar mass. Entries after “also recorded” stand apart in the source; their conditions may differ. Like-named read-outs stand apart in the source and are kept apart here. Values belong to the molecule of their own block, whether it stands above or below them.

What was measured:
[1] = system: cell lines derived from colon cancer and prostate cancer; assay: MTS colorimetric proliferation assay, VIP antagonist with chemotherapeutic agents (Example I); format: cell-based; conditions: combination with stearyl-Nle17-neurotensis 6-11 VIP 7-28
Experimental: Assays were performed with cell lines derived from colon cancer and prostate cancer. Proliferation was assessed using the MTS colorimetric assay of mitochondrial function for living cells. The VIP antagonist (stearyl-Nle17-neurotensis 6-11 VIP 7-28) was used.

[2] = system: NCI-H727 non-small cell lung cancer (carcinoid); assay: MTS cell proliferation assay, SNH and chemotherapy; format: cell-based; conditions: for nature of the combined effect with SNH: combination with SNH
Experimental: NCI-H727 and LNCaP were grown in RPMI 1640 medium supplemented with 10% heat inactivated FCS, L-glutamine and antibiotics. HT-29 and CT-26 were grown in DMEM medium supplemented with 10% heat-inactivated FCS (fetal calf serum), L-glutamine and antibiotics. The cells were cultured in 5% CO2/95% air at […] and used during their exponential growth phase. Routinely, the cells which are adherent, were split when a subconfluent monolayer was formed. In different experiments, various concentration of FCS were used. For growth inhibition experiments, subconfluent adherent cells were washed with PBS and treated with trypsin/versene. The cells were pelleted and resuspended in medium to a final concentration of 75,000 cells/mL for NCI-H727. 50,000 cells/mL for LNCaP and HT-29 and 25000 cells/mL for CT-26. These different concentrations were used in order to avoid confluence in the wells at the end of the experiment and correspond to the different doubling times of the cell lines. On day 0, cells suspensions […] were dispensed using a multi-channel pipet into the individual wells of a 96-well tissue culture plate (Nuncion, Nunc Brand Products). […] Cells were incubated for 24 hours in a humidified atmosphere of 95% air/5% CO2 at 37° C. before treatment. On day 1, the cells were treated with different drugs and schedules and maintained under the same conditions. On day 4, viable cell number was determined by a modified MTT assay i.e., MTS non-radioactive cell proliferation assay (Promega). […] Results were finally expressed as percentage of the control, which was obtained from the samples with no drug treatment. Dose-response curves were plotted using a Sigma-Plot software and statistically analyzed using Student test. To determine the effect of the lipophilic VIP antagonist SNH on cell proliferation, cells plated in 96-well microplates for 24 hours as described, were treated with various concentrations of SNH. The peptide was diluted in PBS and […] of the peptide solution was added to each well for a final concentration of the peptide between 10^−510^−9 M. The solvent was added to the control wells. […] A dose-response curve was obtained at concentrations ranging from 2 μM-10 μM (see, FIG. 2). […] The effects of an 8 hours treatment were slightly less, showing that most of the effect is in the initial hours of exposure and much more dose than time dependent. […] For the experiments with the combinations of VIP antagonists and chemotherapeutic agents, on day 0, the cells were plated for 24 hours in medium supplemented with 5% FCS. On day 1, the peptide was added to the wells followed 1 hour later by the chemotherapeutic agents. […] The chemotherapeutic drugs were tested over 7 concentrations, covering as much as possible of the dose response curve of each individual drug. 24 hours later, the medium was exchanged and the cells incubated under the same conditions for another 48 hours. On day 4 the number of viable cells was determined by MTS assay.

[3] = system: CT-26 murine colon cancer; assay: MTS cell proliferation assay, SNH and chemotherapy; format: cell-based; conditions: CT-26, SNH and CPT-11 (FIG. 10)
Experimental: NCI-H727 and LNCaP were grown in RPMI 1640 medium supplemented with 10% heat inactivated FCS, L-glutamine and antibiotics. HT-29 and CT-26 were grown in DMEM medium supplemented with 10% heat-inactivated FCS (fetal calf serum), L-glutamine and antibiotics. The cells were cultured in 5% CO2/95% air at […] and used during their exponential growth phase. Routinely, the cells which are adherent, were split when a subconfluent monolayer was formed. In different experiments, various concentration of FCS were used.
For growth inhibition experiments, subconfluent adherent cells were washed with PBS and treated with trypsin/versene. The cells were pelleted and resuspended in medium to a final concentration of 75,000 cells/mL for NCI-H727. 50,000 cells/mL for LNCaP and HT-29 and 25000 cells/mL for CT-26. […]
On day 4, viable cell number was determined by a modified MTT assay i.e., MTS non-radioactive cell proliferation assay (Promega). Briefly, […] of freshly prepared MTS/PMS solution was added to each individual well and after 1-3 hours of incubation (the optimal time was determined for each cell line) absorbance at 490 nm was measured using a multiscan plate reader. Results were finally expressed as percentage of the control, which was obtained from the samples with no drug treatment. Dose-response curves were plotted using a Sigma-Plot software and statistically analyzed using Student test. […]

[4] = system: HT-29 human colon cancer; assay: MTS cell proliferation assay, SNH and chemotherapy; format: cell-based; conditions: HT-29, SNH and CPT-11 (FIG. 11)
Experimental: NCI-H727 and LNCaP were grown in RPMI 1640 medium supplemented with 10% heat inactivated FCS, L-glutamine and antibiotics. HT-29 and CT-26 were grown in DMEM medium supplemented with 10% heat-inactivated FCS (fetal calf serum), L-glutamine and antibiotics. The cells were cultured in 5% CO2/95% air at […] and used during their exponential growth phase. Routinely, the cells which are adherent, were split when a subconfluent monolayer was formed. In different experiments, various concentration of FCS were used. For growth inhibition experiments, subconfluent adherent cells were washed with PBS and treated with trypsin/versene. The cells were pelleted and resuspended in medium to a final concentration of 75,000 cells/mL for NCI-H727. 50,000 cells/mL for LNCaP and HT-29 and 25000 cells/mL for CT-26. These different concentrations were used in order to avoid confluence in the wells at the end of the experiment and correspond to the different doubling times of the cell lines. […] On day 4, viable cell number was determined by a modified MTT assay i.e., MTS non-radioactive cell proliferation assay (Promega). […] Results were finally expressed as percentage of the control, which was obtained from the samples with no drug treatment. Dose-response curves were plotted using a Sigma-Plot software and statistically analyzed using Student test. […] On day 4 the number of viable cells was determined by MTS assay.

[5] = system: VIP receptor (glioblastoma cells); assay: cAMP in glioblastoma cells, basal and VIP-stimulated; format: cell-based; conditions: 10 nM VIP
Description: The effects of VIP receptor antagonists on glioblastoma cell lines were investigated.

[6] = system: MCF-7 cells; assay: MTT colorimetric assay, breast cancer cells (Example 6); format: cell-based; conditions: for Absorbance at 570 nM: MCF-7, MTT, 5 days
Experimental: The ability of VIP receptor antagonists to alter the growth of breast cancer cells was investigated in vitro using the MTT colorimetric. The semiautomated MTT assay measures reduction of a tetrazolium compound by tumor cells to formazan. The optical density at 570 nm was determined for 8 wells at each inhibitor concentration. Seeding densities were 5×10^4 cells/well and cells were grown in 96 well plates for 5 days.

[7] = system: MDA-MB231 xenografts; assay: MDA-MB231 breast cancer xenografts in nude mice; format: in vivo, Balb/c nude mice; conditions: after 4 weeks; VIPhyb 10 μg/day s.c., Taxol 1.5 mg i.p. once; PBS control 1121 mm^3
Experimental: To test the proliferative aspects of VIPhybrid analogs in vivo, nude mice bearing breast cancer xenografts were utilized. Female athymic Balb/c nude mice, 4-5 weeks old, were housed in a pathogen-free temperature controlled isolation room and the diet consisted of autoclaved rodent chow and autoclaved water given ad libitum. MDA-MB231 cells (1×10^7) were injected into the right flank of each mouse subcutaneously. […] PBS (100 μl) or VIPhyb analogs (10 μg/day) were injected subcutaneously adjacent to the tumor. Taxol was injected once (1.5 mg i.p.) after 2 weeks. The tumor volume (height×width×depth) was determined twice weekly by calipers and recorded.

[8] = system: CAPAN pancreatic cancer cell line; assay: MTT assay, Taxol with or without SNVIPhyb; format: cell-based
Description: (§1) The ability of SNVIPhyb to inhibit cancer growth was investigated.

[9] = system: MCF-7 breast cancer cells; assay: MTT assay, Taxol with or without SNVIPhyb; format: cell-based; conditions: for IC50: Homo sapiens, MCF7
Description: as §1

[10] = system: NCI-H1299 lung cancer cell line; assay: MTT assay, Taxol with or without SNVIPhyb; format: cell-based; conditions: Homo sapiens
Description: as §1

[11] = system: NCI-H157 lung cancer cell line; assay: MTT assay, Taxol with or without SNVIPhyb; format: cell-based; conditions: Homo sapiens
Description: as §1

[12] = system: PC-3 prostate cancer cell line; assay: MTT assay, Taxol with or without SNVIPhyb; format: cell-based
Description: as §1

[13] = system: NCI-H727 non-small cell lung cancer (carcinoid); assay: MTS cell proliferation assay, SNH and chemotherapy; format: cell-based; conditions: 8 μM SNH 2 h, then Taxol 0.003-1 μg/ml 4 h, then fresh medium 66 h
[14] = system: lung (NCI-H157 and NCI-H1299), breast (MCF-7), pancreatic (CAPAN) and prostate (PC-3) cancer cell lines; assay: MTT assay, Taxol with or without SNVIPhyb, summary over epithelial cancer cell lines
Description: The effects of SNVIPhyb were then investigated in the presence of Taxol, which affects microtubules, causing dividing cells to arrest in the mitosis (M) phase of growth.
The effect of SNVIPhyb was investigated on other epithelial cancer cell lines.

Molecule: CCc1c2c(nc3ccc(OC(=O)N4CCC(N5CCCCC5)CC4)cc13)-c1cc3c(c(=O)n1C2)COC(=O)[C@]3(O)CC [CPT-11]
effect of the combination with the VIP antagonist [1]: synergistic | enhancement of the antiproliferative activity of the chemotherapeutic agent by the lipophilic VIP antagonist [1]: enhance the antiproliferative activity | reduction of the IC50 of the chemotherapeutic agent by SNH ([2]; 5 μM SNH, NCI-H727): at least two-fold | nature of the combined effect with SNH [2]: synergistic | effect of the combination with SNH [3]: enhancing effect | effect of the combination with SNH [4]: enhancing effect

Molecule: KPRRPYTDNYTRLRKQMAVKKYLNSILN [VIPhyb, earlier hybrid VIP antagonist: neurotensin 6-11 joined to VIP 7-28]
order of peptide potency, inhibition of VIP-stimulated cAMP [5]: (SN)VIPhybrid>VIP hybrid >PTC4495 | Absorbance at 570 nM ([6]; 1 μM): .417 ± .064 | Absorbance at 570 nM ([6]; 3 μM): .353 ± .048 | Absorbance at 570 nM ([6]; 10 μM): .317 ± .030 | inhibition of MCF-7 proliferation ([6]; 10 μM, MTT assay): significantly inhibited | tumor volume (height×width×depth) [7]: 508 mm^3

IC50 ([8]; 10 μM SNVIPhyb, read-out: IC50 with 10 μM SNVIPhyb): 3 mg/L (≈ 3.51 µM) | IC50 ([8]; Taxol alone, read-out: IC50): 10 mg/L (≈ 11.7 µM) | IC50 ([9]; MCF-7, 3 μM SNVIPhyb, read-out: IC50 in the presence of 3 μM SNVIPhyb): 24 mg/L | IC50 ([9]; MCF-7, 10 μM SNVIPhyb, read-out: IC50 with 10 μM SNVIPhyb): 2 mg/L (≈ 2.34 µM) | IC50 ([9]; MCF-7, Taxol alone, read-out: IC50): 12 mg/L (≈ 14.1 µM) | IC50 ([10]; NCI-H1299, 10 μM SNVIPhyb, read-out: IC50 with 10 μM SNVIPhyb): 3 mg/L (≈ 3.51 µM) | IC50 ([10]; NCI-H1299, Taxol alone, read-out: IC50): 8 mg/L (≈ 9.37 µM) | IC50 ([11]; NCI-H157, 10 μM SNVIPhyb, read-out: IC50 with 10 μM SNVIPhyb): 2.5 mg/L (≈ 2.93 µM) | IC50 ([11]; NCI-H157, Taxol alone, read-out: IC50): 10 mg/L (≈ 11.7 µM) | IC50 ([12]; PC-3, 10 μM SNVIPhyb, read-out: IC50 with 10 μM SNVIPhyb): 5 mg/L (≈ 5.86 µM) | IC50 ([12]; PC-3, Taxol alone, read-out: IC50): 15 mg/L (≈ 17.6 µM) | IC50 ([14]; read-out: IC50 values over the cell lines): 8 to 15 mg/L (≈ 9.37 to 17.6 µM) | IC50 ([14]; read-out: IC50 values over the cell lines in the presence of 10 μM SNVIPhyb): 2.5 to 5 mg/L
Molecule: CC(=O)O[C@H]1C(=O)[C@@]2(C)[C@H]([C@H](OC(=O)c3ccccc3)[C@]3(O)C[C@H](OC(=O)[C@H](O)[C@@H](NC(=O)c4ccccc4)c4ccccc4)C(C)=C1C3(C)C)[C@]1(OC(C)=O)CO[C@@H]1C[C@@H]2O [Taxol]
increase of cytotoxicity by SNVIPhyb ([9]; MCF-7, combination with SNVIPhyb): increases the cytotoxicity | effect on MCF-7 cells ([9]; Taxol at 1 μg/mL): little effect | nature of the combined effect with SNH [2]: very effective; also recorded: synergistic | tumor volume (height×width×depth) [7]: 613 mm^3 | reduction of the IC50 of Taxol by SNH [13]: about 6 fold | interaction with SNVIPhyb at inhibiting cancer cell proliferation ([14]; combination with SNVIPhyb): synergistic | increase of potency in the presence of SNVIPhyb ([14]; epithelial cancer cells): 3-6 fold
